Consider three molecules from patent publication US20200038399A1, “FORMULATIONS, METHODS, KIT, AND DOSAGE FORMS FOR TREATING BACTERIAL INFECTION” (Motif BioSciences Inc., priority 2016, published 2020).

For data set [1], the system named is Staphylococcus aureus AH 1246. Nature of the data set: mouse subcutaneous abscess model. To be noted: mice; 40 mg/Kg (alone); PO @ 8, 24, 32, 48, 56 hours post infection. Type of data set: in vivo.
Procedure: Wild type S. aureus ATCC 25923 and its TK-deficient mutant AH 1246 were supplied by Arpida AG, Reinach, Switzerland.
S. aureus strains were grown on TSA plates at 37° C. in 5% CO2. The bacteria concentration was adjusted by re-suspending a portion of the overnight growth of the plate in saline and adjusting a 1:10 dilution of the suspension to achieve an OD625 of 0.1. The adjusted suspension was diluted 1:2 in prepared Cytodex beads (1 gram/50 mL PBS) to a final concentration of 5.0×10^5 CFU/mL. Bacterial enumeration was performed to determine actual concentration of the bacterial inoculum.
CD-1 female mice (weighing 18 to 22 grams) from Charles River Laboratories (Wilmington, Mass.) were acclimated for 5 days prior to start of study. All studies were performed under approved IACUC protocols and conform to OLAW standards. Animals had free access to food and water throughout the study. Animals were provided enrichment and housed 5 per cage.
Mice were injected SC with 0.2 mL of the bacterial-Cytodex inoculum. […] The mice were then euthanized and the abscesses aseptically removed, homogenized, serially diluted and plated for bacterial enumeration.
Data set [2] relates to Pneumocystis jirovecii. The data set can be described thus: in vivo Pneumocystis pneumonia model, corticosteroid-treated rats. To be noted: once a day for 10 days; for Mean % + SD (inhibition of cysts, TBO) / Mean % + SD (inhibition of total parasites, Giemsa): group mean; for Total cysts (TBO) / Total parasites (Giemsa): rat lung; for Total cysts (TBO) / Total parasites (Giemsa) / % of inhibition vs Control (total parasites, Giemsa) / % of inhibition vs control (cysts, TBO): single rat. Here is the method:
Compound solutions were prepared just before use.
The drugs were given once a day for 10 consecutive days. The final concentration of DMSO in diluted drug solutions was between 1.5 and 15%. Control animals were dosed with sterile water with 15% of DMSO. At the end of the experiment, therapeutic efficacy was assessed by counting P. jirovecii in lung homogenates and comparing the counts with those of the untreated controls. Twenty-four hours after the end of the treatment, animals were sacrificed and the lung homogenized in a Stomacher-400 blender as previously described (European Concerted Action on Pneumocystis Research. Parasitology Today 12: 245-9, 1996, the entire disclosure of which is herein incorporated by reference). Parasite quantitation was performed on air-dried smears stained with toluidine blue 0 (cystic forms) or RAL-555 stains (vegetative, precystic and cystic forms).

In the next data set the test system is S. aureus 101. Nature of the data set: MIC determination. Type of data set: cell-based, Staphylococcus aureus. To be noted: Staphylococcus aureus, 101, 18 h; read-out: Minimum inhibitory concentrations (MIC). In a few lines:
(§1)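 Microtiter dilution; CA-MHB for K. pneumoniae/S. aureus, BHI for M. catarrhalis, HTM (MHB + yeast extract + NAD/hematin) for H. influenzae. 37 °C, 18 h; 5% CO2 for H. influenzae and M. catarrhalis, air otherwise. MIC: no visible growth.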

The subject of a further data set is S. pneumoniae 1/1. The data set can be described thus: MIC determination. Type of data set: cell-based, Streptococcus pneumoniae. To be noted: Streptococcus pneumoniae; S. pneumoniae 1/1; 18 hours at 37° C., 5% CO2; read-out: Minimum inhibitory concentrations (MIC).
The subject of data set [3] is Haemophilus influenzae ATCC 49766. The data set can be described thus: MIC determination. Type of data set: cell-based. To be noted: Haemophilus influenzae, ATCC49766; H. Influenza 49766; 18 hours at 37° C., 5% CO2; read-out: Minimum inhibitory concentrations (MIC). The method, boiled down:
as §1

Data set [4] deals with Klebsiella pneumoniae ATCC 33495. The data set can be described thus: MIC determination. Type of data set: cell-based. To be noted: Klebsiella pneumoniae, ATCC33495; K. pneumonia 33495; 18 hours at 37° C.; read-out: Minimum inhibitory concentrations (MIC). In a few lines:
as §1

The test system of data set [5] is Moraxella catarrhalis RA 21. Nature of the data set: MIC determination. Type of data set: cell-based. To be noted: Moraxella catarrhalis, RA21; M. catarrhalis RA 21; 18 hours at 37° C., 5% CO2; read-out: Minimum inhibitory concentrations (MIC). In a few lines: as §1
The subject of data set [6] is Staphylococcus aureus ATCC 25923. The data set can be described thus: MIC determination. Type of data set: cell-based. To be noted: Staphylococcus aureus, ATCC25923; S. aureus 25923; 18 hours at 37° C.; read-out: Minimum inhibitory concentrations (MIC). In a few lines: as §1
Data set [7] deals with Streptococcus pneumoniae ATCC 49619. Nature of the data set: MIC determination. Type of data set: cell-based. As to conditions: Streptococcus pneumoniae, ATCC49619; S. pneumoniae 49619; 18 hours at 37° C., 5% CO2; read-out: Minimum inhibitory concentrations (MIC).
The conditions of data set [8]: in vivo; cited from earlier work.
Data set [9] relates to Pneumocystis jirovecii. Nature of the data set: in vitro anti-Pneumocystis susceptibility, broth microdilution in axenic culture. To be noted: 4 days.
Procedure: Iclaprim was synthesized at Arpida Ltd. (Münchenstein, Switzerland). TMP and SMX were obtained from Sigma, Spain. […] TMP and SMX solutions were mixed appropriately to obtain a final 1:5-combination. For evaluating the in vitro anti-Pneumocystis activity, the drug stock solutions were diluted in Dulbecco's Modified Eagle's Medium (DMEM, Bio-Whittaker) supplemented with 10% heat-inactivated fetal calf serum (FCS, GIBCO-BRL) to produce the required drug concentrations. […] Compound solutions were prepared just before use.
Corticosteroid-treated conventional laboratory rats were used as an animal model to obtain P. jirovecii organisms. Ten-week-old female Wistar rats (Harlan, France) were immunosuppressed for 3 weeks with dexamethasone (Fortecortin®, Merck) administered in the drinking water (2 mg/liter). Rats were then inoculated with 20×10^6 of cryopreserved parasites using a non-surgical endotracheal method. Dexamethasone treatment was maintained until the end of the experiment. Six to eight weeks' post-inoculation (p.i.) rats were highly infected, without secondary fungal or bacterial infection. Animals were allowed sterile standard food (UAR, France) and water ad libitum.
Six to eight weeks following inoculation, rats were sacrificed and parasite extraction was performed. Briefly, parasites were extracted in Dulbecco's Modified Eagle's Medium (DMEM; Bio-Whittaker) by agitation of lung pieces with a magnetic stirrer. The resulting homogenate was poured successively through gauze, 250 and 63 micron stainless steels filters. After centrifugation, the pellet was resuspended in a hemolytic buffered solution. […] Blood and Sabouraud dextrose agar (Difco) media were inoculated with purified parasites to check for the presence of eventual contaminating pathogens.
In vitro pharmacodynamic properties were determined using the Hill equation (Emax sigmoid model; see below).
In vitro susceptibility studies were performed using the broth microdilution technique. […] All the experiments were carried out in 24-well plates with a final volume of 2 ml of DMEM supplemented with 10% FCS containing a final inoculum of 0.5×10^6 organisms per ml. Plates were then incubated for 4 days in an atmosphere of 5% C0^2 at 37° C. One free-drug control was included in each assay. Parasite quantitation was performed on homogenate smears as described above. All susceptibility assays were set up in triplicate.
Analysis of results. […] Once all the differences between drug-treated and untreated wells were calculated, the concentration-effect relationship was established by using the Hill equation:
The parameters of this pharmacodynamic model were calculated by nonlinear least-squares regression techniques using a commercial software (Sigma Plot).
Another data set concerns Gram-positive bacteria. As to conditions: cited from earlier work.
For data set [10] the following is noted: in vivo; cited from earlier work. The source holds these as a separate data set.
The target in the next data set is hERG channel (Homo sapiens, UniProt Q12809). As to conditions: cited from earlier work.
For data set [11] the following is noted: water at 20° C.; cited from earlier work.
For data set [12] the following is noted: cited from earlier work.
For data set [13] the following is noted: 1% solution in water; cited from earlier work.
The mark [14] stands for this setting: 5 mg/kg/d oral, listed as AR-100, 5 mg/kg/day.
The mark [15] stands for this setting: 25 mg/kg/d oral, listed as AR-100, 25 mg/kg/day.
[16] abbreviates: 50 mg/kg/d oral, listed as AR-100, 50 mg/kg/day.

Values joined by “and” are separate entries in the source; they are usually repeats but may differ in a detail not shown here. Equal values may be shown once. Where a name gives a salt, the structure may show the parent alone.

hERG channel, sequence (Q12809 whole entry): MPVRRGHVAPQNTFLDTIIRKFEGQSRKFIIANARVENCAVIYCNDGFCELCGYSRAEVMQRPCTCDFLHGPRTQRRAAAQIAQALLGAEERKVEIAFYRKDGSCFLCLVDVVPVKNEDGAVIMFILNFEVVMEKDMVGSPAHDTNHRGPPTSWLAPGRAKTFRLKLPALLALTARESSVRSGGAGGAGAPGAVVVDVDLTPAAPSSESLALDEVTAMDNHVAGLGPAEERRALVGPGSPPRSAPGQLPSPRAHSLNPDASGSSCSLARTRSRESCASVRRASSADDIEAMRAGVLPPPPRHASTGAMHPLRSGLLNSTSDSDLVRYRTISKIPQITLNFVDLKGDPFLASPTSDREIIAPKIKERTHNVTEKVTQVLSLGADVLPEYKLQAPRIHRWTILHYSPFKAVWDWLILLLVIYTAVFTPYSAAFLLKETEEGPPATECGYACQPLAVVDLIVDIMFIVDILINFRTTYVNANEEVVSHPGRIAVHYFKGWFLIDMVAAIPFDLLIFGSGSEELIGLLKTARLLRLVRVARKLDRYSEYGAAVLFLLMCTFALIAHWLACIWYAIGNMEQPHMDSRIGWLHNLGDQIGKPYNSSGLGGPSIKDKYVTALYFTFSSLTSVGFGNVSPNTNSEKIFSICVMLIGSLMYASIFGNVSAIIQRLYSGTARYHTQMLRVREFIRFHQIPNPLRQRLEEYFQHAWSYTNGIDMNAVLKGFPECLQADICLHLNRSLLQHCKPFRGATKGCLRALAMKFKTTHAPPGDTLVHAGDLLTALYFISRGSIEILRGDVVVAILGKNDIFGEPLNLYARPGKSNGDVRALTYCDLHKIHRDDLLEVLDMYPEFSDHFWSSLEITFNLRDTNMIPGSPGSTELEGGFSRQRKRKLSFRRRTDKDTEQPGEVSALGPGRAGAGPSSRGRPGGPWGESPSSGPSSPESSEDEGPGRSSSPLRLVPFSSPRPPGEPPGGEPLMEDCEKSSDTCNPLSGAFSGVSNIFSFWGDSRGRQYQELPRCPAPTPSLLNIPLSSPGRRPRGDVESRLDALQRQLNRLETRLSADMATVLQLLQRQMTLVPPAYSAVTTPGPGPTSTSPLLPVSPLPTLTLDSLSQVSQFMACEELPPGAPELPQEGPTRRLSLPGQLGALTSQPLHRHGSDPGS

As to `COc1cc(Cc2cnc(N)nc2N)c2c(c1OC)OC(C1CC1)C=C2` (racemic) [Iclaprim, 5-[(2RS)-2-cyclopropyl-7,8-dimethoxy-2Hchromen-5-ylmethyl] pyrimidine-2,4-diamine], the “Change in average log10 CFU/gr of Abscess from Controls” value in data set [1] is reported as −0.79 log10 CFU/gr. Further, the “Mean % + SD (inhibition of cysts, TBO)” value with Pneumocystis jirovecii [2] (5 mg/kg/d oral) was determined as 69.4 ± 8.4%; with Pneumocystis jirovecii [2] (25 mg/kg/d oral), 72.0 ± 30.0%; with Pneumocystis jirovecii [2] (50 mg/kg/d oral), 71.7 ± 14.5%. Also, the “Mean % + SD (inhibition of total parasites, Giemsa)” value with Pneumocystis jirovecii [2] (5 mg/kg/d oral) is reported as 66.9 ± 7.8%; with Pneumocystis jirovecii [2] (25 mg/kg/d oral) it was 79.1 ± 20.9%; with Pneumocystis jirovecii [2] (50 mg/kg/d oral) it was 76.5 ± 13.3%. The “Total cysts (TBO)” value in the data set with Pneumocystis jirovecii [2] (setting [14]) is 3.85.10^+7 and 2.60.10^+7 and 4.61.10^+7; in the data set on Pneumocystis jirovecii [2] (setting [15]), 1.72.10^+7 and 8.94.10^+6 and 9.11.10^+7; with Pneumocystis jirovecii [2] (setting [16]), 5.17.10^+7 and 3.38.10^+7 and 5.23.10^+7. The “Total parasites (Giemsa)” value was 9.13.10^+8 and 6.56.10^+8 in the data set on Pneumocystis jirovecii [2] (setting [14]); 3.94.10^+8 and 3.41.10^+7 and 9.38.10^+8 in the data set on Pneumocystis jirovecii [2] (setting [15]); 5.68.10^+8 and 7.71.10^+8 and 2.00.10^+8 in the data set on Pneumocystis jirovecii [2] (setting [16]). The “% of inhibition vs Control (total parasites, Giemsa)” value in the data set with Pneumocystis jirovecii [2] (setting [14]) is 58.1% and 69.9% and 72.8%; with Pneumocystis jirovecii [2] (setting [15]), 81.9% and 98.4% and 90.8%; in the data set on Pneumocystis jirovecii [2] (setting [16]), 74.0% and 64.7% and 90.8%. The “% of inhibition vs control (cysts, TBO)” value was 68.0% and 78.4% and 61.7% in the data set on Pneumocystis jirovecii [2] (setting [14]); 85.7% and 92.6% and 37.7% in the data set with Pneumocystis jirovecii [2] (setting [15]); 57.1% and 71.9% and 86.1% in the data set with Pneumocystis jirovecii [2] (setting [16]). Besides, the MIC in the data set with S. aureus 101 came to 1 µg/mL; in the data set on S. pneumoniae 1/1 it was 1 µg/mL; in [3] it was 0.25 µg/mL; in [4] it was 8 µg/mL; in [5], 2 µg/mL; in [6], 0.063 µg/mL. For the same molecule, in data set [7], the MIC worked out at 0.125 µg/mL. In addition, in [8], the “t½ (plasma half-life)” value is “about 2.9 hours”. Besides, the “% inhibition vs control” value in the data set with Pneumocystis jirovecii [9] (Iclaprim 5 μg/ml) is 5.8 ± 2.6%; with Pneumocystis jirovecii [9] (Iclaprim 11 μg/ml) it was 19.3 ± 7.4%; in the data set with Pneumocystis jirovecii [9] (Iclaprim 18 μg/ml), 44.0 ± 6.3%; in the data set with Pneumocystis jirovecii [9] (Iclaprim 24 μg/ml), 58.1 ± 3.1%; in the data set on Pneumocystis jirovecii [9] (Iclaprim 31 μg/ml), 79.3 ± 4.8%; in the data set on Pneumocystis jirovecii [9] (Iclaprim 37 μg/ml), 92.3 ± 1.9%. Also, the “% inhibition vs control” value in the data set with Pneumocystis jirovecii [9] (Iclaprim 44 μg/ml) was found to be 98.3 ± 0.72%; with Pneumocystis jirovecii [9] (Iclaprim 50 μg/ml) it was 99.7 ± 0.04%; in the data set with Pneumocystis jirovecii [9] (Iclaprim 80 μg/ml), 99.8 ± 0.12%; in the data set on Pneumocystis jirovecii [9] (Iclaprim 100 μg/ml), 99.9 ± 0.07%. Further, the “Log (total parasites)” value in the data set on Pneumocystis jirovecii [9] (Iclaprim 5 μg/ml) is listed as 6.2; in the data set with Pneumocystis jirovecii [9] (Iclaprim 11 μg/ml) it was 6.1; with Pneumocystis jirovecii [9] (Iclaprim 18 μg/ml), 5.9; in the data set with Pneumocystis jirovecii [9] (Iclaprim 24 μg/ml), 5.8; in the data set on Pneumocystis jirovecii [9] (Iclaprim 31 μg/ml), 5.5; in the data set with Pneumocystis jirovecii [9] (Iclaprim 37 μg/ml), 5.1. The “Log (total parasites)” value in the data set with Pneumocystis jirovecii [9] (Iclaprim 44 μg/ml) was 4.4; in the data set on Pneumocystis jirovecii [9] (Iclaprim 50 μg/ml) it was 3.7; with Pneumocystis jirovecii [9] (Iclaprim 80 μg/ml), 3.4; in the data set on Pneumocystis jirovecii [9] (Iclaprim 100 μg/ml), 3.3. For the same molecule, the “Total parasites (× 10^6)” value in the data set with Pneumocystis jirovecii [9] (Iclaprim 5 μg/ml) is 1.5 ± 0.04 × 10^6; in the data set with Pneumocystis jirovecii [9] (Iclaprim 11 μg/ml) it was 1.3 ± 0.1 × 10^6; in the data set on Pneumocystis jirovecii [9] (Iclaprim 18 μg/ml), 0.9 ± 0.1 × 10^6; in the data set on Pneumocystis jirovecii [9] (Iclaprim 24 μg/ml), 0.7 ± 0.05 × 10^6; in the data set with Pneumocystis jirovecii [9] (Iclaprim 31 μg/ml), 0.3 ± 0.08 × 10^6; with Pneumocystis jirovecii [9] (Iclaprim 37 μg/ml) it was 0.1 ± 0.03 × 10^6. Besides, the “Total parasites (× 10^6)” value is reported as 0.03 ± 0.01 × 10^6 in the data set on Pneumocystis jirovecii [9] (Iclaprim 44 μg/ml), 0.01 ± 0.001 × 10^6 with Pneumocystis jirovecii [9] (Iclaprim 50 μg/ml), 0.003 ± 0.002 × 10^6 with Pneumocystis jirovecii [9] (Iclaprim 80 μg/ml) and 0.002 ± 0.001 × 10^6 in the data set with Pneumocystis jirovecii [9] (Iclaprim 100 μg/ml).

`COc1cc(Cc2cnc(N)nc2N)c2c(c1OC)O[C@H](C1CC1)C=C2` [R-enantiomer, 5-[(2R)-2-cyclopropyl-7,8-dimethoxy-2Hchromen-5-ylmethyl] pyrimidine-2,4-diamine]: the “minimum inhibitory concentration (MIC) compared with the S-enantiomer” value with Gram-positive bacteria is on record as “lower minimum inhibitory concentration (MIC) than the S-enantiomer”. For the same molecule, the “pharmacokinetic parameters compared with the S-enantiomer” value in [10] is “more favorable pharmacokinetic parameters”. Also, the “hERG channel activity compared with the S-enantiomer” value at hERG channel was “reduced hERG channel activity”.

For orientation: pKa means the pH at which an ionisable group is half protonated. `COc1cc(Cc2cnc(N)nc2N)c2c(c1OC)OC(C1CC1)C=C2` (stereo not drawn) [iclaprim mesylate]: in data set [11], the solubility in water entry is reported as “approximately 10 mg/mL”. In addition, the pKa in [12] was 7.2. Moreover, the pH value in data set [13] is 4.2.
